According to ChEMBL document CHEMBL1201862, “PubChem BioAssay data set” (2004):
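These data come from cells grown in 96-well plates and exposed to compound for 48 hours at five concentrations. The concentration for 50% growth inhibition is given as GI50.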 Calls of active or inactive are those of the source. Cut-off read from the data, not from the text of the source: active = GI50 up to about 1.1 µM and inactive = higher.

Legend:
Assay in all cases: growth of human tumour cells (NCI), 48 h
[1] = tested on: KM-20L2
[2] = tested on: SNB-78
[3] = tested on: DLD-1
[4] = tested on: LXFL 529
[5] = tested on: DMS-114
[6] = tested on: M19-MEL
[7] = tested on: DMS-273
[8] = tested on: RXF 631
[9] = tested on: HOP-18

Measured: GI50

O=C(Nc1ccc(C(F)(F)F)cc1[N+](=O)[O-])C(=O)C(C(=O)c1ccc2ccccc2c1)C1OC(=O)c2ccccc21 (configuration not stated)
inactive: [1] 20.6 µM | [2] 10.1 µM | [3] 6.9 µM | [4] 5.18 µM | [5] 8.71 µM | [6] 8.89 µM

CCCCNC(=O)NNC(=O)c1cc(/C=C/c2cccc([N+](=O)[O-])c2)ncn1
inactive: [1] > 100 µM | [7] > 100 µM | [2] > 100 µM | [3] 37.7 µM | [4] > 10 µM | [8] > 100 µM | [9] > 100 µM | [5] 51.3 µM | [6] > 100 µM

CCOC(=O)C(=O)Nc1cccc(Cl)c1C
inactive: [2] > 100 µM | [3] > 100 µM | [4] > 100 µM | [8] > 100 µM | [9] > 100 µM | [5] > 100 µM | [6] > 100 µM

COc1cc(-c2ccc(NC(=O)SCCC(=O)O)cc2OC)ccc1NC(=O)SCCC(=O)O
inactive: [1] > 100 µM | [7] > 100 µM | [2] > 100 µM | [4] > 100 µM | [5] > 100 µM | [6] > 100 µM

COc1ccc(S(=O)(=O)N(CC(=O)O)c2ccccc2)cc1
inactive: [1] > 100 µM | [7] > 100 µM | [3] > 100 µM | [4] > 100 µM | [9] > 100 µM | [6] > 100 µM

COc1ccc(N2C(=O)[C@H]3CC(C)c4c([nH]c5ccccc45)[C@H]3C2=O)cc1 (some centres not stated)
inactive: [1] 2.99 µM | [7] 1.51 µM | [2] 5.08 µM | [3] 3.54 µM | [4] 4.14 µM | [5] 2.01 µM | [6] 2.13 µM

CCN(CC)CCNC(=O)c1ccccc1NC(=O)C(=O)Nc1ccccc1C(=O)NCCN(CC)CC
inactive: [1] 37.7 µM | [7] > 100 µM | [2] > 100 µM | [3] 63.4 µM | [8] > 100 µM | [9] > 100 µM | [5] 32.2 µM | [6] 22.8 µM

COc1ccc(/C(=N\NC(=O)C(=O)NN)C(c2ccc(OC)cc2)C2(O)C(=O)Nc3ccccc32)cc1 (configuration not stated)
inactive: [1] > 100 µM | [7] > 100 µM | [2] > 100 µM | [3] 51.4 µM | [4] 29 µM | [8] > 100 µM | [5] 64.3 µM | [6] > 100 µM

CC(C)(C)C1CCC(=O)C(C(O)CC2CC(=O)N(c3ccccc3)C(=O)C2)C1 (configuration not stated)
inactive: [1] > 100 µM | [7] > 100 µM | [2] > 100 µM | [3] > 100 µM | [4] > 100 µM | [8] 56.8 µM | [9] > 100 µM | [5] > 100 µM | [6] > 100 µM

CCOC(=O)C(C(=O)c1ccccc1)=C1NCCN1
inactive: [1] > 100 µM | [3] > 100 µM | [4] > 100 µM | [8] > 100 µM | [9] 4.06 µM | [6] > 100 µM

CCN(CC)CCn1c2c3ccccc3ccc2c2oc(=O)c3ccccc3c21
inactive: [1] > 100 µM | [2] > 100 µM | [3] > 100 µM | [4] > 100 µM | [8] > 100 µM | [9] > 100 µM | [5] > 100 µM | [6] > 100 µM

CCCCN(CC)C(=O)C(=O)C1C(=O)Nc2ccccc2[S+]1[O-] (configuration not stated)
inactive: [1] > 100 µM | [7] > 100 µM | [2] > 100 µM | [3] > 100 µM | [4] > 100 µM | [9] > 100 µM | [5] > 100 µM | [6] > 100 µM

COC(=O)/C(=N\NC(N)=O)C(C(=O)C(=O)Nc1ccccc1C(=O)OC)c1nc2ccc(C(=O)c3ccccc3)cc2nc1O (configuration not stated)
inactive: [1] > 100 µM | [7] > 100 µM | [2] > 100 µM | [3] > 100 µM | [4] > 100 µM | [8] > 100 µM | [9] > 100 µM | [5] > 100 µM | [6] > 100 µM

Cc1cc(O)nc(CNC(=O)Cc2ccccc2)n1
inactive: [1] > 100 µM | [7] > 100 µM | [2] > 100 µM | [3] > 100 µM | [4] > 100 µM | [5] > 100 µM | [6] > 100 µM

Cc1ccccc1C(=O)Oc1ccc(O)cc1
inactive: [1] > 100 µM | [7] > 100 µM | [2] > 100 µM | [3] > 100 µM | [8] > 100 µM | [9] > 100 µM | [6] > 100 µM

O=C1C2C3CC4C5C3C1C5C1(SCCS1)C42 (configuration not stated)
inactive: [1] > 100 µM | [7] > 100 µM | [2] > 100 µM | [3] > 100 µM | [4] > 100 µM | [9] > 100 µM | [5] > 100 µM | [6] > 100 µM

FC(F)(F)c1ccc(/C=N/C23CC4CC(CC(C4)C2)C3)cc1
inactive: [1] > 100 µM | [7] > 100 µM | [2] > 100 µM | [5] > 100 µM

COc1ccc(C2Cc3cc(OC)c(OC)c(OC)c3C2=O)cc1 (configuration not stated)
inactive: [1] > 100 µM | [7] > 100 µM | [2] > 100 µM | [3] > 100 µM | [9] > 100 µM | [5] 76.6 µM | [6] > 100 µM

N#CCCN(c1ccc(C=O)cc1)S(=O)(=O)c1ccccc1
inactive: [1] > 100 µM | [7] > 100 µM | [4] > 100 µM | [5] > 100 µM | [6] > 100 µM

O=C(N/N=C/c1cccc(O)c1O)N/N=C/c1cccc(O)c1O
inactive: [1] 29.3 µM | [7] 22.9 µM | [2] 34.8 µM | [4] 16.7 µM | [9] 19.2 µM | [5] > 100 µM | [6] 22.4 µM
